Data: patent US6673938B1, “Substituted pyridine herbicides” (Syngenta Participations AG, priority 1998, dated 2004)
Each block holds one compound with its values, some of them ahead of it.

What was measured:
[1] = tested on: Monocotyledonous and dicotyledonous test plants; assay: Herbicidal action before emergence of the plants (pre-emergence action); format: in vivo; conditions: 2000 g/ha, evaluated after 3 weeks, nine-step scale
Summary of the method: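 Sprayed onto soil immediately after sowing as WP suspension or EC emulsion at 2 kg or 250 g a.i./ha (500 l water/ha). Greenhouse growth for 3 weeks, then scored on a nine-step scale (1 = complete damage, 9 = no effect).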

[2] = tested on: Monocotyledonous and dicotyledonous test plants; assay: Post-emergence herbicidal action; format: in vivo; conditions: 2000 g/ha, sprayed in 4- to 6-leaf stage, evaluated after approximately 18 days, nine-step scale
Summary of the method: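 Greenhouse plants sprayed at the 4- to 6-leaf stage with test substance as wettable-powder suspension or emulsion-concentrate emulsion, 2 kg or 250 g a.i./ha in 500 l water/ha. Scored after about 18 days on a nine-step scale (1=complete damage, 9=no effect).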

melting point: 90 to 92 °C
SMILES: Cc1nc(C(F)(F)F)ccc1C(=O)C1=C(O)CCCC1=O [Compound A2-B1, 3-hydroxy-2-(2-methyl-6-trifluoromethylpyridine-3-carbonyl)cyclohex-2-enone]
pre-emergence action, Cyperus [1]: 2
pre-emergence action, Ipomoea [1]: 2
pre-emergence action, Setaria [1]: 1
pre-emergence action, Sinapis [1]: 2
pre-emergence action, Solanum [1]: 2
pre-emergence action, Stellaria [1]: 1
Post-emergence action, Ipomoea [2]: 1
Post-emergence action, Lolium [2]: 2
Post-emergence action, Setaria [2]: 1
Post-emergence action, Sinapis [2]: 1
Post-emergence action, Solanum [2]: 1
Post-emergence action, Stellaria [2]: 2

SMILES: Cc1nc(C(F)(F)F)ccc1C(=O)C1=C(O)C(C)(C)C(=O)C(C)(C)C1=O [Compound A2-B354, 5-hydroxy-2,2,6,6-tetramethyl-4-(2-methyl-6-trifluoromethylpyridine-3-carbonyl)cyclohex-4-ene-1,3-dione]
melting point: 139 to 140 °C
pre-emergence action, Cyperus [1]: 1
pre-emergence action, Ipomoea [1]: 1
pre-emergence action, Setaria [1]: 1
pre-emergence action, Sinapis [1]: 1
pre-emergence action, Solanum [1]: 1
pre-emergence action, Stellaria [1]: 2
Post-emergence action, Ipomoea [2]: 2
Post-emergence action, Lolium [2]: 2
Post-emergence action, Setaria [2]: 2
Post-emergence action, Sinapis [2]: 2
Post-emergence action, Solanum [2]: 2
Post-emergence action, Stellaria [2]: 2
